Structures are written as SMILES.

This test addresses T1, human recombinant P2X7 receptor (Homo sapiens, UniProt Q99572).
T1 construct: expressed in transfected cells
T1 sequence (Q99572 1-595): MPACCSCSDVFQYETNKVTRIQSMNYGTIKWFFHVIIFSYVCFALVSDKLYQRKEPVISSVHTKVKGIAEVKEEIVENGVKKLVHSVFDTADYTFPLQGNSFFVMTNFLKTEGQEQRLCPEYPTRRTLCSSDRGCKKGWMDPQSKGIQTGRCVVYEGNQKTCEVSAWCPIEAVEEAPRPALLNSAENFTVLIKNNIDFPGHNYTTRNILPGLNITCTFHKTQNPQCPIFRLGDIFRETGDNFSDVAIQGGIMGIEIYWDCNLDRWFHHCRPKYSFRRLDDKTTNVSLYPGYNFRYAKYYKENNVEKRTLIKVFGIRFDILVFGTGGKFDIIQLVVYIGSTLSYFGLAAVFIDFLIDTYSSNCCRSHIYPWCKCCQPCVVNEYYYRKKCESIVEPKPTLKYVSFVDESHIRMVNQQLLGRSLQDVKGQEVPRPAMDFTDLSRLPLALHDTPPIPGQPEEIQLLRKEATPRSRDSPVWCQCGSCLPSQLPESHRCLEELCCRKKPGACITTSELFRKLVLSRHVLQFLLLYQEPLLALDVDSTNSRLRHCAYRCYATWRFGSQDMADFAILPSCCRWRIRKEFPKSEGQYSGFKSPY
Nature of the test: YO-PRO assay (YO-PRO-1 uptake) in HEK cells stably expressing P2X7. Type of test: cell-based. The following applies: HEK-293 cells expressing human recombinant P2X7 receptor; ATP 250 μM, 90 minutes; YO-PRO-1 fluorescence (FLIPR tetra); read-out: IC50 (antagonistic activity with respect to the P2X7 receptor). The method, boiled down: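 Antagonist serially diluted (duplicates) on P2X7-expressing HEK cells in buffer with 0.5 μM YO-PRO-1; dye uptake followed on FLIPR Tetra over four time points. IC50 from maximum fluorescence intensity versus compound concentration.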
As to `CN(c1ccc(Cl)c(C(=O)NCC2(O)CCCCC2)c1)c1nccc(=O)[nH]1` [Example 75, 2-Chloro-N-(1-hydroxy-cyclohexylmethyl)-5-[methyl-(6-oxo-1,6-dihydro-pyrimidin-2-yl)-amino]-benzamide], the IC50 came to 1.02 µM.

For `O=C(NCC1(O)CCCCC1)c1cc(Nc2cncnc2)ccc1Cl` [Example 76, 2-Chloro-N-(1-hydroxy-cyclohexylmethyl)-5-(pyrimidin-5-ylamino)-benzamide], the IC50 was found to be 0.418 µM.

For `COCCN(c1cncnc1)c1ccc(Cl)c(C(=O)NCC2(O)CCCCC2)c1` [Example 77, 2-Chloro-N-(1-hydroxy-cyclohexylmethyl)-5-[(2-methoxy-ethyl)-pyrimidin-5-yl-amino]-benzamide], the IC50 stood at 1.46 µM.

On to `O=C(NCC1(O)CCCCC1)c1cc(Nc2cnccn2)ccc1Cl` [Example 78, 2-Chloro-N-(1-hydroxy-cyclohexylmethyl)-5-(pyrazin-2-ylamino)-benzamide], for which the IC50 amounted to 0.439 µM.

Consider `CN(c1ccc(Cl)c(C(=O)NCC2(O)CCCCC2)c1)c1cnccn1` [Example 79, 2-Chloro-N-(1-hydroxy-cyclohexylmethyl)-5-(methyl-pyrazin-2-yl-amino)-benzamide], for which the IC50 was 0.352 µM.

Consider `COCCN(c1ccc(Cl)c(C(=O)NCC2(O)CCCCC2)c1)c1cnccn1` [Example 80, 2-Chloro-N-(1-hydroxy-cyclohexylmethyl)-5-[(2-methoxy-ethyl)-pyrazin-2-yl-amino]-benzamide], for which the IC50 is 1.43 µM.

For the compound `CN(c1ccc(Cl)c(C(=O)NCC2(O)CCCCC2)c1)c1cncc(Cl)n1` [Example 81, 2-Chloro-5-[(6-chloro-pyrazin-2-yl)-methyl-amino]-N-(1-hydroxy-cyclohexylmethyl)-benzamide], the IC50 was found to be 0.245 µM.

For `COc1cncc(N(C)c2ccc(Cl)c(C(=O)NCC3(O)CCCCC3)c2)n1` [Example 82, 2-Chloro-N-(1-hydroxy-cyclohexylmethyl)-5-[(6-methoxy-pyrazin-2-yl)-methyl-amino]-benzamide], the IC50 was found to be 0.076 µM.

Take `CNc1cncc(N(C)c2ccc(Cl)c(C(=O)NCC3(O)CCCCC3)c2)n1` [Example 83, 2-Chloro-N-(1-hydroxy-cyclohexylmethyl)-5-[methyl-(6-methylamino-pyrazin-2-yl)-amino]-benzamide]: the IC50 was 0.057 µM.

`CN(C)c1cncc(N(C)c2ccc(Cl)c(C(=O)NCC3(O)CCCCC3)c2)n1` [Example 84, 2-Chloro-5-[(6-dimethylamino-pyrazin-2-yl)-methyl-amino]-N-(1-hydroxy-cyclohexylmethyl)-benzamide]: the IC50 was 0.065 µM.

`CN(c1ccc(Cl)c(C(=O)NCC2(O)CCCCC2)c1)c1cncc(=O)[nH]1` [Example 85, 2-Chloro-N-(1-hydroxy-cyclohexylmethyl)-5-[methyl-(6-oxo-1,6-dihydro-pyrazin-2-yl)-amino]-benzamide]: the IC50 was found to be 0.177 µM.

As for `CN(c1ccc(Cl)c(C(=O)NCC2(O)CCCCC2)c1)c1nccnc1Cl` [Example 86, 2-Chloro-5-[(3-chloro-pyrazin-2-yl)-methyl-amino]-N-(1-hydroxy-cyclohexylmethyl)-benzamide], the IC50 came to 0.061 µM.

`CN(c1ccc(Cl)c(C(=O)NCC2(O)CCCCC2)c1)c1cnc(Cl)cn1` [Example 87, 2-Chloro-5-[(5-chloro-pyrazin-2-yl)-methyl-amino]-N-(1-hydroxy-cyclohexylmethyl)-benzamide]: the IC50 was 0.19 µM.

As for `COc1cnc(N(C)c2ccc(Cl)c(C(=O)NCC3(O)CCCCC3)c2)cn1` [Example 88, 2-Chloro-N-(1-hydroxy-cyclohexylmethyl)-5-[(5-methoxy-pyrazin-2-yl)-methyl-amino]-benzamide], the IC50 turned out to be 0.302 µM.

Consider `CN(c1ccc(Cl)c(C(=O)NCC2(O)CCCCC2)c1)c1ccc(Cl)nn1` [Example 89, 2-Chloro-5-[(6-chloro-pyridazin-3-yl)-methyl-amino]-N-(1-hydroxy-cyclohexylmethyl)-benzamide], for which the IC50 was determined as 0.271 µM.

As for `CN(c1ccc(Cl)c(C(=O)NCC2(O)CCCCC2)c1)c1ccc(=O)[nH]n1` [Example 90, 2-Chloro-N-(1-hydroxy-cyclohexylmethyl)-5-[methyl-(6-oxo-1,6-dihydro-pyridazin-3-yl)-amino]-benzamide], the IC50 is 0.905 µM.

Take `COc1ccc(N(C)c2ccc(Cl)c(C(=O)NCC3(O)CCCCC3)c2)nn1` [Example 91, 2-Chloro-N-(1-hydroxy-cyclohexylmethyl)-5-[(6-methoxy-pyridazin-3-yl)-methyl-amino]-benzamide]: the IC50 stood at 0.354 µM.

As to `O=C(NCC1(O)CCCCC1)c1cc(Nc2ccccn2)ccc1Cl` [Example 92, 2-Chloro-N-(1-hydroxy-cyclohexylmethyl)-5-(pyridin-2-ylamino)-benzamide], the IC50 is 0.082 µM.

In the case of `CN(c1ccc(Cl)c(C(=O)NCC2(O)CCCCC2)c1)c1ccccn1` [Example 93, 2-Chloro-N-(1-hydroxy-cyclohexylmethyl)-5-(methyl-pyridin-2-yl-amino)-benzamide], the IC50 was 0.111 µM.

Turning to `O=C(NCC1(O)CCCCC1)c1cc(Nc2cccc(=O)[nH]2)ccc1Cl` [Example 94, 2-Chloro-N-(1-hydroxy-cyclohexylmethyl)-5-(6-oxo-1,6-dihydro-pyridin-2-ylamino)-benzamide], the IC50 is 0.16 µM.

As for `CN(c1ccc(Cl)c(C(=O)NCC2(O)CCCCC2)c1)c1cccc(=O)[nH]1` [Example 95, 2-Chloro-N-(1-hydroxy-cyclohexylmethyl)-5-[methyl-(6-oxo-1,6-dihydro-pyridin-2-yl)-amino]-benzamide], the IC50 turned out to be 0.351 µM.

As to `Cn1c(Nc2ccc(Cl)c(C(=O)NCC3(O)CCCCC3)c2)cccc1=O` [Example 96, 2-Chloro-N-(1-hydroxy-cyclohexylmethyl)-5-(1-methyl-6-oxo-1,6-dihydro-pyridin-2-ylamino)-benzamide], the IC50 worked out at 0.123 µM.

On to `COCCn1c(Nc2ccc(Cl)c(C(=O)NCC3(O)CCCCC3)c2)cccc1=O` [Example 97, 2-Chloro-N-(1-hydroxy-cyclohexylmethyl)-5-[1-(2-methoxy-ethyl)-6-oxo-1,6-dihydro-pyridin-2-ylamino]-benzamide], for which the IC50 was determined as 0.317 µM.

As to `COCCn1c(N(C)c2ccc(Cl)c(C(=O)NCC3(O)CCCCC3)c2)cccc1=O` [Example 98, 2-Chloro-N-(1-hydroxy-cyclohexylmethyl)-5-{[1-(2-methoxy-ethyl)-6-oxo-1,6-dihydro-pyridin-2-yl]-methyl-amino}-benzamide], the IC50 turned out to be 0.332 µM.

Regarding `Cn1cccc(Nc2ccc(Cl)c(C(=O)NCC3(O)CCCCC3)c2)c1=O` [Example 99, 2-Chloro-N-(1-hydroxy-cyclohexylmethyl)-5-(1-methyl-2-oxo-1,2-dihydro-pyridin-3-ylamino)-benzamide], the IC50 was found to be 0.148 µM.

`Cn1nccc1Nc1ccc(Cl)c(C(=O)NCC2(O)CCCCC2)c1` [Example 100, 2-Chloro-N-(1-hydroxy-cyclohexylmethyl)-5-(2-methyl-2H-pyrazol-3-ylamino)-benzamide]: the IC50 worked out at 0.217 µM.

Take `CN(c1ccc(Cl)c(C(=O)NCC2(O)CCCCC2)c1)c1ccnn1C` [Example 101, 2-Chloro-N-(1-hydroxy-cyclohexylmethyl)-5-[methyl-(2-methyl-2H-pyrazol-3-yl)-amino]-benzamide]: the IC50 was found to be 0.319 µM.

For orientation: IC50 means the concentration that inhibits the measured activity by half.

These data come from patent publication US20140073651A1, “BENZAMIDE DERIVATIVES AS P2X7 RECEPTOR ANTAGONISTS” (Actelion Pharmaceuticals Ltd., priority 2011, published 2014).
